{"source": "patent US20140308274A1", "about": "“COMBINATION CANCER TREATMENTS UTILIZING SYNTHETIC OLIGONUCLEOTIDES AND EGFR-TKI INHIBITORS” (MIRNA THERAPEUTICS, INC., priority 2013, published 2014)", "key": {"H1299": {"test_system": "H1299", "details": "H1299 (resistant); reported in the scientific literature; cited from earlier work"}, "H460 [1]": {"test_system": "H460", "assay": "cells", "details": "Homo sapiens, NCI-H460, 72 h"}, "A549 cells": {"test_system": "A549 cells", "assay": "AlamarBlue cellular proliferation, matrix of erlotinib-miR-34a ratios", "type": "cell-based, Human", "details": "for concentration required as single agent to induce ~80% cancer cell inhibition: A549, actual data points", "method": "(§1) Each data point was performed in triplicates.\nLevels of cancer cell inhibition, CI and DRI values were determined for each combination and graphed in CI plots, isobolograms and curve-shift diagrams."}, "HepG2": {"test_system": "HepG2", "assay": "AlamarBlue cellular proliferation, isobologram of erlotinib with miR-34a", "type": "cell-based", "method": "as §1"}, "NSCLC": {"test_system": "NSCLC", "details": "patients with NSCLC; cited from earlier work"}, "H460 [2]": {"test_system": "H460", "details": "H460 (resistant); reported in the scientific literature; cited from earlier work"}, "[3]": {"test_system": "Hep3B, C3A, HepG2 and Huh7", "assay": "AlamarBlue cellular proliferation, single agents and fixed ratio method in hepatocellular carcinoma cells", "type": "cell-based", "details": "72 h, read-out: IC50 of erlotinib alone, 3 days", "method": "as §1\nFront Biosci (Elite Ed) 2: 241-9. […] Id."}, "H1299 cells": {"test_system": "H1299 cells", "assay": "AlamarBlue cellular proliferation, fixed concentration model (erlotinib serial dilution +/- miRNA)", "type": "cell-based", "details": "Homo sapiens"}, "[4]": {"test_system": "breast cancer cell lines BT-549, MCF-7, MDA-MB-231, T47D", "assay": "AlamarBlue cellular proliferation, lapatinib and miR-Rx34 combination index", "type": "cell-based, human", "details": "~IC50 ratio", "method": "The human breast cancer cell lines BT-549, T47D, MDA-MD-231 and MCF-7 (from ATCC) were used to evaluate the combinatorial effects of mir-Rx34 and lapatinib. Lapatinib was purchased from LC Laboratories (Woburn, Mass.).\nThe combination studies were carried out at ˜IC50 ratio of lapatinib and miR-Rx34 (ratio=IC50 lapatinib/IC50 miR-Rx34). […] The ratios of lapatinib/miR-Rx34a are 4000 in BT-549, 3333.3 in MDA-MD-231, 5000 in MCF-7 and 6000 in T47D. Cells were reversed transfected with miR-Rx34a, lapatinib were added 3 days post transfection, and cell proliferation were measured 3 days post lapatinib addition by AlamarBlue.\nCombinations that are considered synergistic and have clinical value are those with a low CI value (<0.6) at maximal cancer cell inhibition. […] Symbols represent CI values derived from actual data points."}, "A549 and H460": {"test_system": "A549 and H460", "details": "cited from earlier work"}}, "note": "Read-outs that look alike come from different tables or passages of the source.", "data": [{"compound": "C#Cc1cccc(Nc2ncnc3cc(OCCOC)c(OCCOC)cc23)c1", "note": "[Erlotinib, N-(3-ethynylphenyl)-6,7-bis(2-methoxyethoxy)-4-quinazolinamine]", "values": [{"measurement": "IC50", "setting": "H1299", "value": "8.6 to 38", "unit": "µM"}, {"measurement": "IC50", "setting": "H460 [1]", "value": 26.3, "unit": "µM"}, {"measurement": "concentration required as single agent to induce ~80% cancer cell inhibition", "setting": "A549 cells", "value": 100, "unit": "µM"}, {"measurement": "erlotinib needed to induce ~80% inhibition in combination", "setting": "A549 cells; A549, used with 12 nM miR-34a", "value": 2.56, "unit": "µM"}, {"measurement": "reduction of the dose requirement of erlotinib", "setting": "A549 cells; A549, ~80% inhibition, with 12 nM miR-34a", "value": "~40", "unit": "fold"}, {"measurement": "erlotinib concentration in combination with miR-34a to inhibit cancer cells by 50%", "setting": "HepG2; HepG2", "value": 2, "unit": "µM"}, {"measurement": "lowering of erlotinib dose compared to its single use", "setting": "HepG2; HepG2, 50% inhibition", "value": 75, "unit": "fold"}, {"measurement": "extension of overall patient survival", "setting": "NSCLC", "value": "~2", "unit": "months"}, {"measurement": "IC50", "setting": "H460 [2]", "value": "8 to 24", "unit": "µM"}, {"measurement": "IC50", "setting": "[3]", "value": "≥ 25", "unit": "µM"}, {"measurement": "IC50", "setting": "H1299 cells; NCI-H1299, 72 h, read-out: IC50 of erlotinib alone, H1299 cells, 3 days", "value": 11, "unit": "µM"}, {"measurement": "IC50", "setting": "H1299 cells; NCI-H1299, 72 h, read-out: IC50", "value": 21.5, "unit": "µM"}, {"measurement": "IC50", "setting": "H1299 cells; NCI-H1299, read-out: erlotinib IC50 in combination with miR-34a, H1299 cells, 0.3 nM miR-34a", "value": 3, "unit": "µM"}]}, {"compound": "COc1cc2ncnc(Nc3ccc(F)c(Cl)c3)c2cc1OCCCN1CCOCC1", "note": "[gefitinib]", "values": [{"measurement": "extension of overall patient survival", "setting": "NSCLC", "value": "~2", "unit": "months"}]}, {"compound": "miR-34a: Synthetic miR-34a mimic; UGGCAGUGUCUUAGCUGGUUGUU, SEQ ID NO: 1 (chemistry not given here)", "values": [{"measurement": "concentration required as single agent to induce ~80% cancer cell inhibition", "setting": "A549 cells", "value": 0.03, "unit": "µM"}, {"measurement": "interaction with lapatinib (combination index)", "setting": "[4]", "value": "synergized with lapatinib"}]}, {"compound": "miR-126: microRNA UCGUACCGUGAGUAAUAAUGC, SEQ ID NO: 3 (chemistry not given here)", "values": [{"measurement": "reduction of gefitinib IC50", "setting": "A549 and H460", "value": "~7", "unit": "fold"}]}]}
